According to patent US7572765B2, “Conformationally constrained parathyroid hormone (PTH) analogs” (The General Hospital Corporation, priority 2001, dated 2009):
Square brackets hold non-standard residues; d marks the D form. Ends that are not written are not given here. Peptide text beside a SMILES is read from it. hArg = N=C(N)NCCCC[C@H](N)C(=O)O; Nle = CCCC[C@H](N)C(=O)O; Aib = CC(C)(N)C(=O)O

Assays:
[1] = biological target: T1, human P1R (Homo sapiens, UniProt Q03431); experiment: Competition binding in HKRK-B28 cells
T1 construct: expressed in transfected cells; host or cells: HKRK-B28 (porcine kidney LLC-PK1, stably transfected)
T1 sequence (Q03431 27-593): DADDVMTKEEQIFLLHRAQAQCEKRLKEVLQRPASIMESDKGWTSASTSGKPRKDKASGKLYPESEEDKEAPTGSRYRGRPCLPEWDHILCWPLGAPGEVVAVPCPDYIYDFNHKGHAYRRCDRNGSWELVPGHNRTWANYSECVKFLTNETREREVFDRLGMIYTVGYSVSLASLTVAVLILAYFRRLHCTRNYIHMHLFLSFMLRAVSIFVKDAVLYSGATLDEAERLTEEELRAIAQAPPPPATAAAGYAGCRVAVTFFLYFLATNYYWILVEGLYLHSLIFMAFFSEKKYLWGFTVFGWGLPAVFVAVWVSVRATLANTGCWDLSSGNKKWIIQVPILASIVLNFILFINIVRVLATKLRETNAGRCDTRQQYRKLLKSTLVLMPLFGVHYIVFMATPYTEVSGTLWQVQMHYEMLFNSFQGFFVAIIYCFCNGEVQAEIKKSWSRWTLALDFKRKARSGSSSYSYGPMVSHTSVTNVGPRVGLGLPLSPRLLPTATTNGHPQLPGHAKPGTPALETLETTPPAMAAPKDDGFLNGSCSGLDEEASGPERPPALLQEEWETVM
Protocol: (§1) Cell Culture. The cell line HKRK-B28 (Takasu, H., et al., J. Bone Miner. Res. 14:11-20 (1999)) was derived from the porcine kidney cell line, LLC-PK1 by stable transfection with plasmid DNA encoding the human P1R and expresses ˜280,000 receptors per cell. These cells, as well as COS-7 cells and SaOS-2-B10 cells, were cultured at […] in T-75 flasks ([…]) in Dulbecco's modified Eagle's medium (DMEM) supplemented with fetal bovine serum (10%), penicillin G (20 units/ml), streptomycin sulfate (20 μg/ml) and amphotericin B (0.05 μg/ml) in a humidified atmosphere containing 5% CO2. Stock solutions of EGTA/trypsin and antibiotics were from GIBCO; fetal bovine serum was from Hyclone Laboratories (Logan, Utah). COS-7 cells sub-cultured in 24-well plates were transfected with plasmid DNA (200 ng per well) encoding the wild-type human P1R or truncated human P1R deleted for residues (24-181) (Shimizu, M., et al., J. Biol. Chem. 275:21836-21843 (2000)) that was purified by cesium chloride/ethidium bromide density gradient centrifugation, and FuGENE 6 transfection reagent (Roche Indianapolis Ind.) according to the manufacturer's recommended procedure. All cells, in 24-well plates, were treated with fresh media and shifted to 33° C. for 12 to 24 h prior to assay.
Competition Binding. Binding reactions were performed with HKRK-B28 cells or in COS-7 cells in 24-well plates. The cells were rinsed with 0.5 mL of binding buffer, and then treated successively with 100 μL binding buffer, 100 μL of binding buffer containing various amounts of unlabeled competitor ligand, and 100 μL of binding buffer containing ca. 100,000 cpm of ^125I-[M]PTH(1-21) or ^125I-[Aib^1,3,M]PTH(1-21)} (ca. 26 fmol; final volume=300 μL). Incubations were 4 to 6 h at 4° C., at which time near equilibrium conditions were attained. Cells were then placed on ice, the binding medium was removed, and the monolayer was rinsed three times with 0.5 mL of cold binding buffer. The cells were subsequently lysed with 0.5 mL […] and counted for radioactivity. For each tracer and in each experiment, the non-specific binding was determined as the radioactivity that bound in the presence of the same unlabeled peptide at a concentration of 1 μM, and was ˜1% of total radioactivity added for each tracer. The maximum specific binding (B0) was the total radioactivity bound in the absence of competing ligand, corrected for nonspecific binding, and for each tracer, ranged from 8% to 20% of the total radioactivity added. Nonlinear regression was used to calculate binding IC50 values (see below). Scatchard transformations of homologous competition binding data derived from studies with 26 fmol of ^125I-[Aib^1,3,M]PTH(1-21) were employed for estimations of apparent equilibrium dissociation constant (kDapps) and total number of ligand binding sites (Bmax), assuming a single class of binding sites and equal affinities of the iodinated and non iodinated ligand.
(§2) Data Calculation. Calculations were performed using Microsoft® Excel. Nonlinear regression analyses of binding and cAMP dose-response data were performed using the four-parameter equation: yp=Min+[(Max−Min)/(1+(IC50/x)^slope)]. The Excel Solver function was utilized for parameter optimization, as described previously (Carter, P. H., et al., Endocrinology 140: 4972-4981 (1999); Bowen, W. P., and Jerman, J. C., Trends in Pharmacol. Sci. 16: 413-417 (1995)). Differences between paired data sets were statistically evaluated using a one-tailed Student's t-test, assuming unequal variances for the two sets.
The P1R-binding properties of these analogs were assayed in competition studies performed in […]. In previous studies, PTH(1-14) binding could not be detected using ^125I-PTH(1-34) and related N-terminally intact and relatively unmodified radioligands (Luck, M. D., et al., Molecular Endocrinology 13:670-680 (1999)). […]

[2] = biological target: T1, human P1R; experiment: cAMP stimulation in HKRK-B28 cells; format: cell-based; conditions: basal 4.0 ± 0.1 pmole/well not subtracted
Protocol: as §1
(§3) cAMP Stimulation. Stimulation of cells with peptide analogs was performed in 24-well plates. Cells were rinsed with 0.5 mL of binding buffer (50 mM Tris-HCI, […], 5 mM KCl, 2 mM CaCl2, 5% heat-inactivated horse serum, 0.5% fetal bovine serum, adjusted to pH 7.5 with HCl) and treated with 200 μL of cAMP assay buffer (Delbecco's modified Eagle's medium containing 2 mM 3-isobutyl-1-methylxanthine, 1 mg/mL bovine serum albumin, 35 mM Hepes-NaOH, pH 7.4) and 100 μL of binding buffer containing varying amounts of peptide analog (final volume=300 μL). The medium was removed after incubation for 30 to 60 minutes at room temperature, and the cells were frozen on dry ice, lysed with 0.5 mL 50 mM HCl, and refrozen ([…]). The cAMP content of the diluted lysate was determined by radioimmunoassay. The EC50 response values were calculated using nonlinear regression (see below).
as §2

[3] = biological target: T2, PTH-1 receptor endogenously expressed in SaOS-2 cells (Homo sapiens, UniProt Q03431); experiment: cAMP stimulation in SaOS-2 cells; format: cell-based
T2 construct: endogenously expressed relatively low levels of the PTH-1 receptor; endogenous in cells; host or cells: SaOS-2 (SaOS-2-B10) human osteosarcoma cells
T2 sequence (Q03431 27-593): T1 sequence (Q03431 27-593)
Protocol: as §1, §3, §2
The number of PTH-1 receptors expressed on the surface of the PTH target cells in bone or kidney is uncertain, but it is likely to be considerably lower than that found in HKRK-B28 cells. Therefore, several of the Aib-mounted PTH analogs were evaluated using SaOS-2 cells.

[4] = biological target: T3, P1R-delNt, truncated human P1R deleted for residues (24-181) (Homo sapiens, UniProt Q03431); experiment: Competition binding in COS-7 cells expressing hP1R-delNt; conditions: direct binding of the radioligand
T3 construct: expressed in transfected cells; host or cells: COS-7 (transient, FuGENE 6)
T3 sequence (Q03431 with tags, fused parts or gaps limits assumed): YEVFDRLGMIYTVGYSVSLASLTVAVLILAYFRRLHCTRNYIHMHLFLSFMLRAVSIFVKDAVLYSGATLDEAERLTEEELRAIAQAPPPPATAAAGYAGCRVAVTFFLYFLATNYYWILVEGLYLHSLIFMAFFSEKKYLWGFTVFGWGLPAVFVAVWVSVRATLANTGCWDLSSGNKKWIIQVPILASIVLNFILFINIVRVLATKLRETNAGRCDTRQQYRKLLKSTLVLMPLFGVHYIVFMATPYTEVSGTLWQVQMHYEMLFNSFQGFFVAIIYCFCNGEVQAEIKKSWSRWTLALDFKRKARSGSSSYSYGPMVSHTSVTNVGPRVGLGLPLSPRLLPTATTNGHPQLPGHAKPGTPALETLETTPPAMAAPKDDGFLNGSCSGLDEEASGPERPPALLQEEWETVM

Row | fold improvement of apparent binding affinity relative to [M]PTH(1-14) ([1]; HKRK-B28 cells) | cAMP EMax(obs.) [2] | fold more potent in stimulating cAMP formation than [M]PTH(1-14) [3] | EMAX(obs.) ([3]; cAMP, basal 6.4 ± 0.8) | binding of radiolabeled peptide to HKRK-B28 cells (in words) ([1]; direct binding of the radioligand) | binding of radioligand to P1R-delNt (in words) [4] | Compound
1 | approximately 10 fold | 269 ± 7 pmole/well | 8 fold | 330 ± 30 pmole/well | – | – | CC[C@H](C)[C@H](NC(=O)[C@H](CCC(=O)O)NC(=O)C(C)(C)NC(=O)[C@@H](NC(=O)[C@H](C)N)C(C)C)C(=O)N[C@@H](CCC(N)=O)C(=O)N[C@@H](CC(C)C)C(=O)N[C@@H](CCSC)C(=O)N[C@@H](Cc1c[nH]cn1)C(=O)N[C@@H](CCC(N)=O)C(=O)N[C@@H](CCCCNC(=N)N)C(=O)N[C@@H](C)C(=O)N[C@@H](CCCCN)C(=O)N[C@@H](Cc1c[nH]c2ccccc12)C(N)=O [Aib-3, AlaValAibGluIleGlnLeuMetHisGlnHarAlaLysTrp] (H-AV[Aib]EIQLMHQ[hArg]AKW-NH2)
2 | – | – | – | – | bound adequately | did not bind detectably | ^125I-[M]PTH(1-21): radioiodinated [M]PTH(1-21) tracer radioligand (AVAEIQL[Nle]HQ[hArg]AKWLASVRRY-NH2; also: 125I radiolabel, position not given here) [reference compound]
